Values of other authors in patent publication US20230027739A1, “ANTIGEN-BINDING AND ANTIGEN D[…]” (Entrada Therapeutics, Inc., priority 2021, published 2023).

What was measured:
[1] = for Amino Acid SASA Values, Theoretical: theoretical values as reported by Tien, et al.
[2] = for Amino Acid Hydrophobicity, Eisenberg and Weiss: hydrophobicity scale of Eisenberg and Weiss; for Amino Acid Hydrophobicity, Engleman et al.: hydrophobicity scale of Engleman et al.; for Amino Acid Hydrophobicity, Hoop and Woods: hydrophobicity scale of Hoop and Woods; for Amino Acid Hydrophobicity, Janin: hydrophobicity scale of Janin; for Amino Acid Hydrophobicity, Kyrie and Doolittle: hydrophobicity scale of Kyrie and Doolittle

| Compound | Amino Acid SASA Values, Miller et al. (1987) [1] [Å^2] | Amino Acid SASA Values, Rose et al. (1985) [1] [Å^2] | Amino Acid SASA Values, Empirical [1] [Å^2] | Amino Acid SASA Values, Theoretical [1] [Å^2] | Amino Acid Hydrophobicity, Eisenberg and Weiss [2] | Amino Acid Hydrophobicity, Engleman et al. [2] | Amino Acid Hydrophobicity, Hoop and Woods [2] | Amino Acid Hydrophobicity, Janin [2] | Amino Acid Hydrophobicity, Kyrie and Doolittle [2] |
| --- | --- | --- | --- | --- | --- | --- | --- | --- | --- |
| N[C@@H](CO)C(=O)O [Serine] | 122.0 | 129.8 | 143.0 | 155.0 |  |  |  |  |  |
| N[C@@H](CCC(=O)O)C(=O)O [Glu] |  |  |  |  | −0.62 | −8.2 | 3.0 | −0.7 | −3.5 |
| CSCC[C@H](N)C(=O)O [Met] |  |  |  |  | 0.26 | 3.4 | −1.3 | 0.4 | 1.9 |
| N[C@@H](CC(=O)O)C(=O)O [Aspartate] | 151.0 | 158.7 | 187.0 | 193.0 |  |  |  |  |  |
| NC(=O)C[C@H](N)C(=O)O [Asparagine] | 158.0 | 165.5 | 187.0 | 195.0 |  |  |  |  |  |
| NCCCC[C@H](N)C(=O)O [Lys] |  |  |  |  | −1.10 | −8.8 | 3.0 | −1.8 | −3.9 |
| C[C@H](N)C(=O)O [Ala] |  |  |  |  | 0.25 | 1.6 | −0.5 | 0.3 | 1.8 |
| NC(=O)C[C@H](N)C(=O)O [Asn] |  |  |  |  | −0.64 | −4.8 | 0.2 | −0.5 | −3.5 |
| N[C@@H](CO)C(=O)O [Ser] |  |  |  |  | −0.26 | 0.6 | 0.3 | −0.1 | −0.8 |
| NCC(=O)O [Glycine] | 85.0 | 88.1 | 97.0 | 104.0 |  |  |  |  |  |
| CC[C@H](C)[C@H](N)C(=O)O [Isoleucine] | 182.0 | 181.0 | 195.0 | 197.0 |  |  |  |  |  |
| O=C(O)[C@@H]1CCCN1 [Proline] | 143.0 | 146.8 | 154.0 |  |  |  |  |  |  |
| N[C@@H](CS)C(=O)O [Cysteine] | 140.0 | 146.1 | 148.0 | 167.0 |  |  |  |  |  |
| N[C@@H](Cc1c[nH]cn1)C(=O)O [His] |  |  |  |  | −0.40 | −3.0 | −0.5 | −0.1 | −3.2 |
| N[C@@H](Cc1ccccc1)C(=O)O [Phe] |  |  |  |  | 0.61 | 3.7 | −2.5 | 0.5 | 2.8 |
| N[C@@H](Cc1c[nH]cn1)C(=O)O [Histidine] | 194.0 | 202.5 | 216.0 | 224.0 |  |  |  |  |  |
| N[C@@H](Cc1ccc(O)cc1)C(=O)O [Tyrosine] | 229.0 | 236.8 | 255.0 | 263.0 |  |  |  |  |  |

| Compound | Amino Acid SASA Values, Miller et al. (1987) [1] [Å^2] | Amino Acid SASA Values, Rose et al. (1985) [1] [Å^2] | Amino Acid SASA Values, Empirical [1] [Å^2] | Amino Acid SASA Values, Theoretical [1] [Å^2] | Amino Acid Hydrophobicity, Eisenberg and Weiss [2] | Amino Acid Hydrophobicity, Engleman et al. [2] | Amino Acid Hydrophobicity, Hoop and Woods [2] | Amino Acid Hydrophobicity, Janin [2] | Amino Acid Hydrophobicity, Kyrie and Doolittle [2] |
| --- | --- | --- | --- | --- | --- | --- | --- | --- | --- |
| N[C@@H](Cc1c[nH]c2ccccc12)C(=O)O [Tryptophan] | 259.0 | 266.3 | 264.0 | 285.0 |  |  |  |  |  |
| N[C@@H](CCC(=O)O)C(=O)O [Glutamate] | 183.0 | 186.2 | 214.0 |  |  |  |  |  |  |
| N=C(N)NCCC[C@H](N)C(=O)O [Arginine] | 241.0 | 256.0 | 265.0 | 274.0 |  |  |  |  |  |
| N[C@@H](Cc1ccc(O)cc1)C(=O)O [Tyr] |  |  |  |  | 0.02 | −0.7 | −2.3 | −0.4 | −1.3 |
| N=C(N)NCCC[C@H](N)C(=O)O [Arg] |  |  |  |  | −1.80 | −12.3 | 3.0 | −1.4 | −4.5 |
| N[C@@H](CC(=O)O)C(=O)O [Asp] |  |  |  |  | −0.72 | −9.2 | 3.0 | −0.6 | −3.5 |
| N[C@@H](Cc1ccccc1)C(=O)O [Phenylalanine] | 218.0 | 222.8 | 228.0 | 240.0 |  |  |  |  |  |
| C[C@@H](O)[C@H](N)C(=O)O [Threonine] | 146.0 | 152.5 | 163.0 | 172.0 |  |  |  |  |  |
| N[C@@H](CS)C(=O)O [Cys] |  |  |  |  | 0.04 | 2.0 | −1.0 | 0.9 | 2.5 |
| C[C@H](N)C(=O)O [Alanine] | 113.0 | 118.1 | 121.0 | 129.0 |  |  |  |  |  |
| N[C@@H](Cc1c[nH]c2ccccc12)C(=O)O [Trp] |  |  |  |  | 0.37 | 1.9 | −3.4 | 0.3 | −0.9 |
| NCCCC[C@H](N)C(=O)O [Lysine] | 211.0 | 225.8 | 230.0 | 236.0 |  |  |  |  |  |
| CC(C)[C@H](N)C(=O)O [Val] |  |  |  |  | 0.54 | 2.6 | −1.5 | 0.6 | 4.2 |
| CSCC[C@H](N)C(=O)O [Methionine] | 204.0 | 203.4 | 203.0 | 224.0 |  |  |  |  |  |
| C[C@@H](O)[C@H](N)C(=O)O [Thr] |  |  |  |  | −0.18 | 1.2 | −0.4 | −0.2 | −0.7 |
| CC(C)[C@H](N)C(=O)O [Valine] | 160.0 | 164.5 | 165.0 | 174.0 |  |  |  |  |  |
